# Patent US20240228489A1, “POSITIVE ALLOSTERIC MODULATORS OF THE MUSCARINIC ACETYLCHOLINE RECEPTOR M1” (Vanderbilt University, priority 2021, published 2024)
# Columns and labels:
# [1] = biological target: T1, human mAChR M1 (Homo sapiens, UniProt P11229); assay: mAChR M1 cell-based functional assay (calcium mobilization), PAM mode: increase in the EC20 acetylcholine response
# T1 sequence (P11229 1-460): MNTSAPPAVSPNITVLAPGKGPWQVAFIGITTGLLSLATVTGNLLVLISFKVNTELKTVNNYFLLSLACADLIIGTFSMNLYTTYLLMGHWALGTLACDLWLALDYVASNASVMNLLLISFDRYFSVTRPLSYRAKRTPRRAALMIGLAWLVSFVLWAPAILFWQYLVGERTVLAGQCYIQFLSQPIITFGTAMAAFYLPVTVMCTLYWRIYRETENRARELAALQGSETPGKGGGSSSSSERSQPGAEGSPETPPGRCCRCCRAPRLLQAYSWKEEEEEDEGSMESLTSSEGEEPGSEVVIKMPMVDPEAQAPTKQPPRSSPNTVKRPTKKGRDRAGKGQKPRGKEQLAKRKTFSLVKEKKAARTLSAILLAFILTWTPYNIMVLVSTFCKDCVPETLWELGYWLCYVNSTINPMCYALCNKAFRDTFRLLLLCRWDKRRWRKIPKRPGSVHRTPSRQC
# Text: (§1) Chinese hamster ovary (CHO-K1) cells stably expressing rat (r)M1 were purchased from the American Type Culture Collection and cultured according to their indicated protocol. CHO cells stably expressing human (h)M2, hM3, and hM5 were described previously (Levey, et al., 1991); hM1 and hM4 cDNAs were purchased from Missouri S&T cDNA Resource; rM4 cDNA was provided by T. I. Bonner (National Institutes of Health, Bethesda, MD). rM2 and rM3 were cloned from a rat brain cDNA library and sequence verified. hM1, rM2, rM3, hM4, and rM4 cDNAs were used to stably transfect CHO-K1 cells purchased from the American Type Culture Collection using Lipofectamine2000. To make stable rM2, hM2, rM3, hM4, and rM4 cell lines for use in calcium mobilization assays, these cells also were stably transfected with a chimeric G-protein (Gqi5) (provided by B. R. Conklin, University of California, San Francisco) using Lipofectamine 2000. rM1, hM1, rM3, hM3, rM5, and hM5 cells were grown in Ham's F-12 medium containing 10% heat-inactivated fetal bovine serum (FBS), 20 mM HEPES, and 50 μg/mL G418 sulfate. rM2-Gqi5, hM2-Gqi5, and hM4-Gqi5 cells were grown in the same medium also containing 500 μg/mL Hygromycin B. Stable rM4-Gqi5 cells were grown in DMEM containing 10% heat-inactivated FBS, 20 mM HEPES, 400 μg/mL G418 sulfate, and 500 μg/mL Hygromycin B.
# (§2) For high throughput measurement of agonist-evoked increases in intracellular calcium, CHO-K1 cells stably expressing muscarinic receptors were plated in growth medium lacking G418 and hygromycin at 15,000 cells/20 μL/well in Greiner 384-well black-walled, tissue culture (TC)-treated, clear-bottom plates (VWR). Cells were incubated overnight at 37° C. and 5% C02. The next day, cells were washed using an ELX 405 (BioTek) with four washes (80 μL) of assay buffer then aspirated to 20 μL. Next, 20 μL of 16 μM Fluo-4/acetoxymethyl ester (Invitrogen, Carlsbad, CA) prepared as a 2.3 mM stock in DMSO and mixed in a 1:1 ratio with 10% (w/v) Pluronic F-127 and diluted in assay buffer was added to the wells and the cell plates were incubated for 50 min at 37° C. and 5% C02. Dye was removed by washing with the ELX 405 (four 80 μL washes of assay buffer) then aspirated to 20 μL. Compound master plates were formatted in an 11 point CRC format (1:3 dilutions) in 100% DMSO with a starting concentration of 10 mM using the BRAVO liquid handler (Agilent). Test compound CRCs were then transferred to daughter plates (240 nL) using the Echo acoustic plate reformatter (Labcyte, Sunnyvale, CA) and then diluted into assay buffer (40 μL) to a 2× stock using a Thermo Fisher Combi (Thermo Fisher Scientific, Waltham, MA).
# Calcium flux was measured using the Functional Drug Screening System (FDSS) 6000 (Hamamatsu Corporation, Tokyo, Japan) as an increase in the fluorescent static ratio. Compounds were applied to cells (20 μL, 2×) using the automated system of the FDSS 6000 at 4 s into the 300 s protocol and the data were collected at 1 Hz. At 144 s into the 300 s protocol, 10 μL of an EC20 concentration of the muscarinic receptor agonist acetylcholine was added (5×), followed by the addition of 12 μL of an EC80 concentration of acetylcholine at the 230 s time point (5×). Agonist activity was analyzed as a concentration-dependent increase in calcium mobilization upon compound addition. Emax values for agonist activity are expressed relative to the maximum for acetylcholine. Positive allosteric modulator activity was analyzed as a concentration-dependent increase in the EC20 acetylcholine response. Antagonist activity was analyzed as a concentration-dependent decrease in the EC80 acetylcholine response. Concentration-response curves were generated using a four-parameter logistical equation in XLfit curve fitting software (IDBS, Bridgewater, NJ) for Excel (Microsoft, Redmond, WA) or Prism (GraphPad Software, Inc., San Diego, CA). […]
# [2] = biological target: T1, human mAChR M1; assay: mAChR M1 cell-based functional assay (calcium mobilization), agonist mode: compound alone, Emax relative to acetylcholine maximum; details: for EC50 / Agonist Activity Human M1 EC50: human mAChR M1; for Emax: relative to the maximum for acetylcholine
# Text: as §1, §2
# Calcium flux was measured using the Functional Drug Screening System (FDSS) 6000 (Hamamatsu Corporation, Tokyo, Japan) as an increase in the fluorescent static ratio. Compounds were applied to cells (20 μL, 2×) using the automated system of the FDSS 6000 at 4 s into the 300 s protocol and the data were collected at 1 Hz. At 144 s into the 300 s protocol, 10 μL of an EC20 concentration of the muscarinic receptor agonist acetylcholine was added (5×), followed by the addition of 12 μL of an EC80 concentration of acetylcholine at the 230 s time point (5×). Agonist activity was analyzed as a concentration-dependent increase in calcium mobilization upon compound addition. Emax values for agonist activity are expressed relative to the maximum for acetylcholine. Positive allosteric modulator activity was analyzed as a concentration-dependent increase in the EC20 acetylcholine response. Antagonist activity was analyzed as a concentration-dependent decrease in the EC80 acetylcholine response. Concentration-response curves were generated using a four-parameter logistical equation in XLfit curve fitting software (IDBS, Bridgewater, NJ) for Excel (Microsoft, Redmond, WA) or Prism (GraphPad Software, Inc., San Diego, CA).
SMILES,EC50 [1] [nM],Emax [1] [%],EC50 [2] [nM],Emax [2] [%],Agonist Activity Human M1 EC50 [2]
"[2H]C1([2H])c2ncccc2C(=O)N1Cc1ccc(-c2ccc(C)c3nn(C)cc23)cc1C [Compound 30, 6-(4-(2,7-dimethyl-2H-indazol-4-yl)-2-methylbenzyl)-6,7-dihydro-5H-pyrrolo[3,4-b]pyridin-5-one-7,7-d2]",1090,79,> 10000,22,–
"[2H]C1([2H])c2ncccc2C(=O)N1Cc1c(F)cc(-c2cccc3nn(C([2H])([2H])[2H])cc23)cc1F [Compound 31, 6-(2,6-Difluoro-4-(2-(methyl-d3)-2H-indazol-4-yl)benzyl)-6,7-dihydro-5H-pyrrolo[3,4-b]pyridin-5-one-7,7-d2]",263,84,8600,28,–
"[2H]C1([2H])c2ncccc2C(=O)N1Cc1c(F)cc(-c2cc(C)cc3nn(C)cc23)cc1F [Compound 32, 6-(4-(2,6-dimethyl-2H-indazol-4-yl)-2,6-difluorobenzyl)-6,7-dihydro-5H-pyrrolo[3,4-b]pyridin-5-one-7,7-d^2]",594,86,5460,16,–
"[2H]C1([2H])c2ncccc2C(=O)N1Cc1ccc(-c2ccc3nn(C)cc3c2)cc1C [Compound 33, 6-(2-methyl-4-(2-methyl-2H-indazol-5-yl)benzyl)-6,7-dihydro-5H-pyrrolo[3,4-b]pyridin-5-one-7,7-d2]",392,72,> 10000,2,–
"[2H]C1([2H])c2ncccc2C(=O)N1Cc1ccc(-c2cnc3nn(C)cc3c2)cc1C [Compound 34, 6-(2-methyl-4-(2-methyl-2H-pyrazolo[3,4-b]pyridin-5-yl)benzyl)-6,7-dihydro-5H-pyrrolo[3,4-b]pyridin-5-one-7,7-d2]",2000,82,> 10000,3,–
"[2H]C1([2H])c2ncccc2C(=O)N1Cc1c(F)cc(-c2cccc3c2cnn3C)cc1F [Compound 35, 6-(2,6-difluoro-4-(1-methyl-1H-indazol-4-yl)benzyl)-6,7-dihydro-5H-pyrrolo[3,4-b]pyridin-5-one-7,7-d^2]",2420,63,> 10000,2,–
"[2H]C1([2H])c2ncccc2C(=O)N1Cc1c(F)cc(-c2ccc(F)c3nn(C)cc23)cc1F [Compound 36, 6-(2,6-difluoro-4-(7-fluoro-2-methyl-2H-indazol-4-yl)benzyl)-6,7-dihydro-5H-pyrrolo[3,4-b]pyridin-5-one-7,7-d2]",476,84,–,5,Inactive
"[2H]C1([2H])c2ncccc2C(=O)N1Cc1c(F)cc(-c2c(F)ccc3nn(C)cc23)cc1F [Compound 37, 6-(2,6-difluoro-4-(5-fluoro-2-methyl-2H-indazol-4-yl)benzyl)-6,7-dihydro-5H-pyrrolo[3,4-b]pyridin-5-one-7,7-d2]",2300,64,–,3,Inactive
"[2H]C1([2H])c2ncccc2C(=O)N1Cc1c(F)cc(-c2ccc(OC)c3n[nH]cc23)cc1F [Compound 38, 6-(2,6-difluoro-4-(7-methoxy-2H-indazol-4-yl)benzyl)-6,7-dihydro-5H-pyrrolo[3,4-b]pyridin-5-one-7,7-d2]",436,69,> 10000,2,–
"[2H]C1([2H])c2ncccc2C(=O)N1Cc1c(F)cc(-c2ccc(OC)c3nn(C)cc23)cc1F [Compound 39, 6-(2,6-difluoro-4-(7-methoxy-2-methyl-2H-indazol-4-yl)benzyl)-6,7-dihydro-5H-pyrrolo[3,4-b]pyridin-5-one-7,7-d2]",112,85,–,9,Inactive
"[2H]C1([2H])c2ncccc2C(=O)N1Cc1c(F)cc(-c2ccc(Cl)c3nn(C)cc23)cc1F [Compound 40, 6-(4-(7-chloro-2-methyl-2H-indazol-4-yl)-2,6-difluorobenzyl)-6,7-dihydro-5H-pyrrolo[3,4-b]pyridin-5-one-7,7-d2]",233,66,–,1,Inactive
"[2H]C1([2H])c2ncccc2C(=O)N1Cc1c(F)cc(-c2ccc(C(F)(F)F)c3nn(C)cc23)cc1F [Compound 41, 6-(2,6-difluoro-4-(2-methyl-7-(trifluoromethyl)-2H-indazol-4-yl)benzyl)-6,7-dihydro-5H-pyrrolo[3,4-b]pyridin-5-one-7,7-d2]",604,65,–,2,Inactive
"[2H]C1([2H])c2ncccc2C(=O)N1Cc1c(F)cc(-c2cccc3nn(CC)cc23)cc1F [Compound 42, 6-(4-(2-ethyl-2H-indazol-4-yl)-2,6-difluorobenzyl)-6,7-dihydro-5H-pyrrolo[3,4-b]pyridin-5-one-7,7-d2]",371,81,> 10000,13,–
"[2H]C1([2H])c2ncccc2C(=O)N1Cc1c(F)cc(-c2cccc3nn(C(C)C)cc23)cc1F [Compound 43, 6-(2,6-difluoro-4-(2-isopropyl-2H-indazol-4-yl)benzyl)-6,7-dihydro-5H-pyrrolo[3,4-b]pyridin-5-one-7,7-d2]",1170,86,> 10000,2,–
"[2H]C1([2H])c2ncccc2C(=O)N1Cc1c(F)cc(-c2cccc3nn(CF)cc23)cc1F [Compound 44, 6-(2,6-difluoro-4-(2-(fluoromethyl)-2H-indazol-4-yl)benzyl)-6,7-dihydro-5H-pyrrolo[3,4-b]pyridin-5-one-7,7-d2]",413,78,> 10000,28,–
